{"source": "ChEMBL document CHEMBL1130038", "about": "“1,2-Diarylpyrroles as potent and selective inhibitors of cyclooxygenase-2” (J Med Chem, 1997)", "key": {"Rattus norvegicus [1]": {"species_on_record": "Rattus norvegicus", "assay": "animal or person", "details": "po, read-out: Inhibition; call rule not given here"}, "[2]": {"molecular_target": "T1, Prostaglandin G/H synthase 1 (Homo sapiens, UniProt P23219)", "T1 sequence (P23219 whole entry)": "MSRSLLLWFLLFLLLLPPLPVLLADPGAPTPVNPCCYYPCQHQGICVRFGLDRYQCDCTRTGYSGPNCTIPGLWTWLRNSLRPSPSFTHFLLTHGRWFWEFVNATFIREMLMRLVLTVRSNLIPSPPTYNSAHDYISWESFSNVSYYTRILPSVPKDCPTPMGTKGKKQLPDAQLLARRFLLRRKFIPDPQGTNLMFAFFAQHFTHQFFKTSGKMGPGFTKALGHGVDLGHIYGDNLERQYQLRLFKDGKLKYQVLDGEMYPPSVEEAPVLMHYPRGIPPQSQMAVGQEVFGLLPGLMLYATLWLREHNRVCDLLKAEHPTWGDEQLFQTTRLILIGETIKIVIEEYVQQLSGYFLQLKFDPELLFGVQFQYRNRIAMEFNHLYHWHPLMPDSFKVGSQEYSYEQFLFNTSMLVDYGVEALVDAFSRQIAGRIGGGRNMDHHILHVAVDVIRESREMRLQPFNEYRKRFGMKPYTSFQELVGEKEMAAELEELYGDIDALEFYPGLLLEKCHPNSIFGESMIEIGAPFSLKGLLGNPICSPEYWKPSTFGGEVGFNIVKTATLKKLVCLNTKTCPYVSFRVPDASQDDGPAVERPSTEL", "description": "In vitro inhibitory activity against human prostaglandin G/H synthase 1"}, "[3]": {"molecular_target": "T1, Prostaglandin G/H synthase 1", "remark": "listed apart in the source", "description": "In vitro inhibitory activity against human Prostaglandin G/H synthase 1; NA indicates inactive"}, "[4]": {"molecular_target": "T2, Prostaglandin G/H synthase 2 (Homo sapiens, UniProt P35354)", "T2 sequence (P35354 whole entry)": "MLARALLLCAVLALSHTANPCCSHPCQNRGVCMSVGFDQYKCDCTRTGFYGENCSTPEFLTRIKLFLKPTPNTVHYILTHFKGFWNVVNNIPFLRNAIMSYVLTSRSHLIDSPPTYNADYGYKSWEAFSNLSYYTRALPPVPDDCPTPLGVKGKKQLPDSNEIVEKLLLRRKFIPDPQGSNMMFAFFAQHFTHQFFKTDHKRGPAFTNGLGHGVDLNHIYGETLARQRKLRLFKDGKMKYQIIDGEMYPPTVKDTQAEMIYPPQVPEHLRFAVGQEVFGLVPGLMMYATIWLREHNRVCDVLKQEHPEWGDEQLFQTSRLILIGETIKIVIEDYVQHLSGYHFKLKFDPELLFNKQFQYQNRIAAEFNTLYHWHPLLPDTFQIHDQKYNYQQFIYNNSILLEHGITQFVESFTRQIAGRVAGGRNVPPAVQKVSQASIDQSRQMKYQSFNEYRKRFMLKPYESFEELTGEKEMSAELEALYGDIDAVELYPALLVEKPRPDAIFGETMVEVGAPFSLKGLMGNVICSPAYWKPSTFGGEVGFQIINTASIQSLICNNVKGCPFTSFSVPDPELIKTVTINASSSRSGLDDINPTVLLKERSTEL", "description": "In vitro inhibitory activity against human Prostaglandin G/H synthase 2; NA indicates inactive"}, "[5]": {"molecular_target": "T1, Prostaglandin G/H synthase 1", "remark": "listed apart in the source"}, "[6]": {"molecular_target": "T2, Prostaglandin G/H synthase 2", "remark": "listed apart in the source"}, "Rattus norvegicus [7]": {"species_on_record": "Rattus norvegicus", "assay": "animal or person", "details": "po, read-out: Inhibition", "remark": "listed apart in the source"}, "Homo sapiens [8]": {"species_on_record": "Homo sapiens", "assay": "tissue or blood", "description": "Ability to inhibit LPS-induced PGE-2 production in human whole blood"}, "[9]": {"molecular_target": "T1, Prostaglandin G/H synthase 1", "type": "functional, cell-based, HL-60", "description": "In vitro inhibitory activity against Prostaglandin G/H synthase 1 in retinoic acid stimulated HL-60 cells"}, "Homo sapiens [10]": {"species_on_record": "Homo sapiens", "assay": "tissue or blood", "remark": "listed apart in the source"}, "Homo sapiens [11]": {"species_on_record": "Homo sapiens", "assay": "tissue or blood", "remark": "listed apart in the source", "description": "Inhibition of LPS-induced PGE-2 production in the human whole blood."}, "Homo sapiens [12]": {"species_on_record": "Homo sapiens", "assay": "tissue or blood", "remark": "listed apart in the source", "description": "Inhibition of TXB2 production in the human whole blood."}}, "data": [{"smiles": "Cc1c(Br)cc(-c2ccc(S(C)(=O)=O)cc2)n1-c1ccc(F)cc1", "values": [{"measurement": "inhibition in vivo at 10 mg/kg", "setting": "Rattus norvegicus [1]", "result": 34, "unit": "%"}]}, {"smiles": "NS(=O)(=O)c1ccc(-n2cccc2-c2ccc(F)cc2)cc1", "values": [{"measurement": "inhibition in vivo at 10 mg/kg", "setting": "Rattus norvegicus [1]", "result": 30, "unit": "%"}]}, {"smiles": "CCCCn1c(C)ccc1-c1ccc(S(C)(=O)=O)cc1", "values": [{"measurement": "IC50", "setting": "[2]", "result": "> 100", "unit": "µM"}, {"measurement": "inhibition in vivo at 10 mg/kg", "setting": "Rattus norvegicus [1]", "result": 1, "unit": "%"}]}, {"smiles": "CS(=O)(=O)c1ccc(-n2cccc2-c2ccc(F)cc2)cc1", "values": [{"measurement": "inhibition in vivo at 10 mg/kg", "setting": "Rattus norvegicus [1]", "result": 42, "unit": "%"}]}, {"smiles": "CCS(=O)(=O)c1ccc(-n2cccc2-c2ccc(F)cc2)cc1", "values": [{"measurement": "IC50", "setting": "[2]", "result": "> 100", "unit": "µM"}]}, {"smiles": "CS(=O)(=O)c1cccc(-n2cccc2-c2ccc(F)cc2)c1", "values": [{"measurement": "IC50", "setting": "[2]", "result": "> 100", "unit": "µM"}]}, {"smiles": "Cc1c(C(Oc2cccc(Cl)c2)C(F)(F)F)cc(-c2ccc(S(C)(=O)=O)cc2)n1-c1ccc(F)cc1", "note": "(stereo not given)", "values": [{"measurement": "IC50", "setting": "[2]", "result": "> 100", "unit": "µM"}]}, {"smiles": "Cc1ccc(-c2ccc(S(C)(=O)=O)cc2)n1C(C)C", "values": [{"measurement": "IC50", "setting": "[2]", "result": "> 100", "unit": "µM"}]}, {"smiles": "CS(=O)(=O)c1ccc(-c2ccc(C(F)(F)F)n2-c2ccc(F)cc2)cc1", "values": [{"measurement": "IC50", "setting": "[2]", "result": "> 100", "unit": "µM"}]}, {"smiles": "Cc1c(CN(C)C)cc(-c2ccc(S(C)(=O)=O)cc2)n1-c1ccc(F)cc1", "values": [{"measurement": "IC50", "setting": "[2]", "result": "> 100", "unit": "µM"}]}, {"smiles": "CC(=O)c1ccc(-n2c(C)ccc2-c2ccc(F)cc2)cc1", "values": [{"measurement": "IC50", "setting": "[3]", "result": "Not Active"}, {"measurement": "IC50", "setting": "[4]", "result": "Not Active"}]}, {"smiles": "O=S(=O)(c1ccccc1)c1ccc(-n2cccc2-c2ccc(F)cc2)cc1", "values": [{"measurement": "IC50", "setting": "[2]", "result": "> 100", "unit": "µM"}]}, {"smiles": "Cc1ccc(-c2ccc(S(C)(=O)=O)cc2)n1C1CCCCC1", "values": [{"measurement": "IC50", "setting": "[2]", "result": "> 100", "unit": "µM"}]}, {"smiles": "CNS(=O)(=O)c1ccc(-n2cccc2-c2ccc(F)cc2)cc1", "values": [{"measurement": "IC50", "setting": "[2]", "result": "> 100", "unit": "µM"}]}, {"smiles": "CCN(CC)OC(=O)c1ccc(-n2c(C)ccc2-c2ccc(F)cc2)cc1", "values": [{"measurement": "IC50", "setting": "[5]", "result": "Active"}, {"measurement": "IC50", "setting": "[6]", "result": "Active"}]}, {"smiles": "CS(=O)(=O)c1ccc(-c2ccc(CCC(=O)O)n2-c2ccc(F)cc2)cc1", "values": [{"measurement": "IC50", "setting": "[2]", "result": "> 100", "unit": "µM"}]}, {"smiles": "Cc1c(S(=O)(=O)C(F)(F)F)cc(-c2ccc(S(C)(=O)=O)cc2)n1-c1ccc(F)cc1", "values": [{"measurement": "IC50", "setting": "[2]", "result": "> 100", "unit": "µM"}, {"measurement": "inhibition in vivo at 20 mg/kg", "setting": "Rattus norvegicus [7]", "result": 30, "unit": "%"}]}, {"smiles": "COc1ccc(-c2ccc(CCC(=O)O)n2-c2ccc(C(C)=O)cc2)cc1", "values": [{"measurement": "IC50", "setting": "[2]", "result": 25, "unit": "µM"}, {"measurement": "IC50", "setting": "Homo sapiens [8]", "result": 1.5, "unit": "µM"}, {"measurement": "IC50", "setting": "[9]", "result": 1, "unit": "µM"}, {"measurement": "IC50", "setting": "Homo sapiens [10]", "result": 0.3, "unit": "µM"}]}, {"smiles": "CS(=O)(=O)c1ccc(-n2cccc2-c2ccc(F)cc2)cc1Cl", "values": [{"measurement": "IC50", "setting": "[2]", "result": "> 100", "unit": "µM"}]}, {"smiles": "Cc1ccc(-c2ccc(S(C)(=O)=O)cc2)n1Cc1ccc(F)cc1", "values": [{"measurement": "IC50", "setting": "[2]", "result": "> 100", "unit": "µM"}]}, {"smiles": "Cc1ccc(-c2ccc(F)cc2)n1-c1ccc(S(C)(=O)=O)cc1", "values": [{"measurement": "IC50", "setting": "[2]", "result": "> 100", "unit": "µM"}]}, {"smiles": "COc1ccc(-c2ccc(C)n2-c2ccc(C(C)=O)cc2)cc1", "values": [{"measurement": "IC50", "setting": "[3]", "result": "Not Active"}, {"measurement": "IC50", "setting": "[4]", "result": "Not Active"}]}, {"smiles": "Cc1ccc(-n2c(C)ccc2-c2ccc(S(C)(=O)=O)cc2)cc1", "values": [{"measurement": "inhibition in vivo at 10 mg/kg", "setting": "Rattus norvegicus [1]", "result": 25, "unit": "%"}]}, {"smiles": "Cc1ccc(-c2ccc(S(C)(=O)=O)cc2)n1-c1ccc(F)c(F)c1", "values": [{"measurement": "inhibition in vivo at 10 mg/kg", "setting": "Rattus norvegicus [1]", "result": 17, "unit": "%"}]}, {"smiles": "CN(C)S(=O)(=O)c1ccc(-n2cccc2-c2ccc(F)cc2)cc1", "values": [{"measurement": "IC50", "setting": "[2]", "result": "> 100", "unit": "µM"}]}, {"smiles": "Cc1c(COc2ccc(Cl)cc2)cc(-c2ccc(S(C)(=O)=O)cc2)n1-c1ccc(F)cc1", "values": [{"measurement": "IC50", "setting": "[2]", "result": "> 100", "unit": "µM"}]}, {"smiles": "Cc1ccc(-c2ccc(S(C)(=O)=O)cc2)[nH]1", "values": [{"measurement": "IC50", "setting": "[2]", "result": "> 100", "unit": "µM"}]}, {"smiles": "CC(=O)c1cc(-c2ccc(S(C)(=O)=O)cc2)n(-c2ccc(F)cc2)c1C", "values": [{"measurement": "inhibition in vivo at 10 mg/kg", "setting": "Rattus norvegicus [1]", "result": 13, "unit": "%"}]}, {"smiles": "CCc1ccc(-c2ccc(S(C)(=O)=O)cc2)n1-c1ccc(F)cc1", "values": [{"measurement": "IC50", "setting": "[2]", "result": "> 100", "unit": "µM"}]}, {"smiles": "Cc1c(C(O)C(F)(F)F)cc(-c2ccc(S(C)(=O)=O)cc2)n1-c1ccc(F)cc1", "note": "(stereo not given)", "values": [{"measurement": "inhibition in vivo at 20 mg/kg", "setting": "Rattus norvegicus [7]", "result": 15, "unit": "%"}]}, {"smiles": "Cc1c(COc2cccc(Cl)c2)cc(-c2ccc(S(C)(=O)=O)cc2)n1-c1ccc(F)cc1", "values": [{"measurement": "IC50", "setting": "[2]", "result": "> 100", "unit": "µM"}]}, {"smiles": "Cc1ccc(-c2ccc(S(C)(=O)=O)cc2)n1-c1ccc(F)cc1", "values": [{"measurement": "IC50", "setting": "[2]", "result": "> 100", "unit": "µM"}, {"measurement": "inhibition in vivo at 10 mg/kg", "setting": "Rattus norvegicus [1]", "result": 25, "unit": "%"}]}, {"smiles": "Cc1ccc(-c2ccc(S(C)(=O)=O)cc2)n1-c1ccccc1", "values": [{"measurement": "inhibition in vivo at 10 mg/kg", "setting": "Rattus norvegicus [1]", "result": 21, "unit": "%"}]}, {"smiles": "CN(C)S(=O)(=O)c1ccc(-n2c(CCC(=O)O)ccc2-c2ccc(F)cc2)cc1", "values": [{"measurement": "IC50", "setting": "Homo sapiens [11]", "result": 4.4, "unit": "µM"}, {"measurement": "IC50", "setting": "Homo sapiens [12]", "result": "> 50", "unit": "µM"}]}, {"smiles": "COC(=O)c1ccc(-n2c(C)ccc2-c2ccc(F)cc2)cc1", "values": [{"measurement": "IC50", "setting": "[3]", "result": "Not Active"}, {"measurement": "IC50", "setting": "[4]", "result": "Not Active"}]}, {"smiles": "Cc1ccc(-c2ccc(S(C)(=O)=O)cc2)n1-c1ccc(C(F)(F)F)cc1", "values": [{"measurement": "inhibition in vivo at 10 mg/kg", "setting": "Rattus norvegicus [1]", "result": 31, "unit": "%"}]}, {"smiles": "CS(=O)(=O)c1ccc(-c2cccn2-c2ccc(F)cc2)cc1", "values": [{"measurement": "IC50", "setting": "[2]", "result": "> 100", "unit": "µM"}]}, {"smiles": "Cc1ccc(-c2ccc(F)cc2)n1-c1ccc([S+](C)[O-])cc1", "note": "(stereo not given)", "values": [{"measurement": "IC50", "setting": "[3]", "result": "Not Active"}, {"measurement": "IC50", "setting": "[4]", "result": "Not Active"}]}]}
